Measured values reported in ChEMBL document CHEMBL4321846, “Discovery of a Potent and Selective Oral Inhibitor of ERK1/2 (AZD0364) That Is Efficacious in Both Monotherapy and Combination Therapy in Models of Nonsmall Cell Lung Cancer (NSCLC)” (J Med Chem, 2019).

Key:
[1] = target: Voltage-gated inwardly rectifying potassium channel KCNH2 (Homo sapiens, UniProt Q12809)
[2] = target: T1, Mitogen-activated protein kinase; ERK1/ERK2 (Homo sapiens, UniProt P27361+P28482); test: Inhibition of ERK1/2 in human A375 cells assessed as inhibition of ERK phosphorylation after 2 hrs; type: cell-based
[3] = target: T1, Mitogen-activated protein kinase; ERK1/ERK2; test: Inhibition of ERK1/2 in human A375 cells assessed as inhibition of RSK phosphorylation after 2 hrs; type: cell-based
[4] = target: T2, Mitogen-activated protein kinase 1 (Homo sapiens, UniProt P28482); test: Inhibition of MEK U911-activated ERK2 (unknown origin) using ERKtide as substrate preincubated for 20 mins followed by substrate addition in presence of 1 mM ATP after 10 mins by rapidfire mass spectrometry analysis
[5] = target: T2, Mitogen-activated protein kinase 1; test: Inhibition of MEK U911-activated ERK2 (unknown origin) using ERKtide as substrate preincubated for 20 mins followed by substrate addition in presence of ATP at Km concentration after 20 mins by rapidfire mass spectrometry analysis

T2 sequence (P28482 whole entry): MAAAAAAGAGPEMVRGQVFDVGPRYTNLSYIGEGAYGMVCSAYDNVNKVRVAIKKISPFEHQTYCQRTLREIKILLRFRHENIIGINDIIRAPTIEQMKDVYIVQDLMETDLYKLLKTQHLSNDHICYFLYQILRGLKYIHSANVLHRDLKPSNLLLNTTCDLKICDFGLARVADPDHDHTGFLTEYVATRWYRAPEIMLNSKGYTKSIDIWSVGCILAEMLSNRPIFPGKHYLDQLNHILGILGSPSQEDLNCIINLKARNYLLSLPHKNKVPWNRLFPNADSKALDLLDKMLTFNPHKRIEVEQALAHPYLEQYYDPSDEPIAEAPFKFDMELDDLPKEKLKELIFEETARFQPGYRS
Chain of Voltage-gated inwardly rectifying potassium channel KCNH2 (Q12809 whole entry): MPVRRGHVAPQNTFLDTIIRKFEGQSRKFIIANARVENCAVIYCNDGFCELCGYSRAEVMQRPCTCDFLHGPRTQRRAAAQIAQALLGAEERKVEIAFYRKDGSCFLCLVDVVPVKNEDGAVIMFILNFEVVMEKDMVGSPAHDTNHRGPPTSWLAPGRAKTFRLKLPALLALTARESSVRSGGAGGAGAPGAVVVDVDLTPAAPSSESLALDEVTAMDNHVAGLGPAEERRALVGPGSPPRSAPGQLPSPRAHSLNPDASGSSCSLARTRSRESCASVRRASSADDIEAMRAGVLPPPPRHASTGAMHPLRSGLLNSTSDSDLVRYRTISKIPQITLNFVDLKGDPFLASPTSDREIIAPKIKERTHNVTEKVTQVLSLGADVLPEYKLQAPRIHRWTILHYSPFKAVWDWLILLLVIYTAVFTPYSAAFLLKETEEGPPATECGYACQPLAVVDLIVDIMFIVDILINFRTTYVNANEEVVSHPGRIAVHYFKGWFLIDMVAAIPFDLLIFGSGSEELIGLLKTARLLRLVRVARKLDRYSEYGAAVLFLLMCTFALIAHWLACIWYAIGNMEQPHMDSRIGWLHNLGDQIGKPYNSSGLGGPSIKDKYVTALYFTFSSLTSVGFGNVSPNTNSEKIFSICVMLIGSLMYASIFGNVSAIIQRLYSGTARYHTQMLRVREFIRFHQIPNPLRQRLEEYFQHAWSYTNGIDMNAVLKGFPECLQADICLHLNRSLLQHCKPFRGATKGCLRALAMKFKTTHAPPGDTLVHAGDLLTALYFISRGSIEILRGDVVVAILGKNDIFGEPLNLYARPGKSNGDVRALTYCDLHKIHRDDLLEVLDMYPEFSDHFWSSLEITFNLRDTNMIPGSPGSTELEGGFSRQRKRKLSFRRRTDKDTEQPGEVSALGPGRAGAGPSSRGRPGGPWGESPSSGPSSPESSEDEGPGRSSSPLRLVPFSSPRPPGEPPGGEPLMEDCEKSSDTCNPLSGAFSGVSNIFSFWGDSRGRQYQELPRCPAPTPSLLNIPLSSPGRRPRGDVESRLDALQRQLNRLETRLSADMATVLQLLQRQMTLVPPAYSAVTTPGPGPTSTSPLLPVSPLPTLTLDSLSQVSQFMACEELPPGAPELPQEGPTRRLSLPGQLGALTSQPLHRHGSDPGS

Compound	IC50 [1] [nM]	IC50 [2] [nM]	IC50 [3] [nM]	IC50 [4] [nM]	IC50 [5] [nM]
Cc1cnc(Nc2ccnn2C)nc1-c1cn2c(n1)C(=O)N(Cc1ccc(F)c(F)c1)[C@@H](C)C2	23000	3.4	38	0.32	< 0.3
Cc1cnc(Nc2ccnn2C)nc1-c1cn2c(n1)C(=O)N(Cc1cccc(Cl)c1)CC2		4.7	12	0.34	< 0.3
Cc1cnc(Nc2ccnn2C)nc1-c1cn2c(n1)C(=O)N(Cc1ccc(F)c(F)c1)CC2	23000	9.1	31	2.6	0.83
Cc1cnc(Nc2ccnn2C)nc1-c1cc2n(c1)CCN(Cc1cccc(Cl)c1)C2=O		> 14000	10	0.13	< 0.3
COC[C@H]1Cn2cc(-c3nc(Nc4ccnn4C)ncc3C)cc2C(=O)N1Cc1cccc(C)n1		30	60	0.6	< 0.3
